This test deals with mPTPB transfected Raw264.7 cells. The test can be described thus: Blocking mPTPB-mediated signaling, Western blotting. The class given is cell-based, mouse. Conditions: dose-dependent. A general note: A western blot detects proteins with antibodies after separation by electrophoresis.

`O=C(O)C(=O)Nc1ccc(C#Cc2ccc(C(F)(F)F)cc2Cl)cc1` [Compound 4t, 2-((4-((2-chloro-4-(trifluoromethyl)phenyl)ethynyl)phenyl)amino)-2-oxoacetic Acid]: the Akt activity result is “reduced”; the “IFN-γ induced phosphorylation of ERK1/2 and p38” value is on record as “increased”.
